Test results reported in PMC8634383, “Switching Bond: Generation of New Antimicrobial Peptides via the Incorporation of an Intramolecular Isopeptide Bond” (ACS Infectious Diseases, 2021).
Values after ≈ are worked out from the molar mass of the structure shown. Starred links: 1 amine or outer side, 2 acyl side, 3 side chain; linkers in the order of their positions; H or OH if unused. Positions of bridges follow the written chain, without caps; N, C: chain ends. Non-standard residues stand in square brackets, D forms with d. Residues, ends and D or L forms follow the SMILES beside them. Chains are numbered I, II in the order given. No end group written: not given here. εLys = N[C@@H](CCCCN[*:1])C(=O)[*:2]

Legend:
[1] = test system: human monocytic (THP-1) cells; format: cell-based; settings: 100 µM
Procedure: Peptide-induced cytotoxicity was assessed against murine macrophage (RAW 264.7) cells and human monocytic (THP-1) cells using the benzenesulfonic acid hydrate and N-methyl dibenzopyrazine methyl sulfate (XTT) dye reduction assay. […] This may in part be due to low hydrophobicity (Table 1), leading to less bacterial membrane alteration.
Figure 3 Cytotoxicity of peptides (1.56–100 μM) on human monocytic (THP-1) cells. Cell viability was analyzed and quantified by measuring the absorption at 450 nm. The data is presented as mean percent viability. All data represent mean ± SD from three independent experiments. One-way analysis of variance was used to analyze the data.
The cytotoxicity of the peptides toward the murine macrophage cells (RAW 264.7) and human monocytic (THP-1) cells was assayed using the colorimetric 2,3-bis(2-methoxy-4-nitro-5-sulfophenyl)-2H-tetrazolium-5-carboxanilide (XTT) method. […] After incubation, the cell viabilities were assessed by the XTT reaction solution (100 μL), and benzenesulfonic acid hydrate and N-methyl dibenzopyrazine methyl sulfate (mixed in a 50:1 ratio) were added for an additional 4 h incubation at 37 °C. The absorbance at 450 nm was then measured using a microplate autoreader (SynersyMx, Biotek). The percentage of cell viability was calculated relative to the 100% survival control after the blank read’s deduction.

Bacillus subtilis = format: cell-based; settings: 24 h
Procedure: (§1) A panel of four bacteria, including two Gram-negative (P. aeruginosa, E. coli) and two Gram-positive (S. aureus, B. subtilis) bacterial strains, was used to test the antibacterial properties of the peptides. The bacteria P. aeruginosa, E. coli, and S. aureus belong to the ESKAPE group of pathogens, which are potential multidrug resistant strains that are majorly involved in various nosocomial infections.
(§2) The antimicrobial activity of the peptides was determined against two Gram-negative (Pseudomonas aeruginosa PA01 and the Escherichia coli K12 parental type) and two Gram-positive (Staphylococcus aureus and Bacillus subtilis) bacteria. The minimal inhibitory concentration (MIC) assays were performed as reported by Wiegand et al.,[50] using the broth microdilution method in 96-well round-bottom microplates. Briefly, bacterial cells in mid log phase were cultured in Mueller-Hinton broth (MHB) and then diluted to 10^6 CFU/mL. Aliquots of 50 μL of bacterial solution were added to 50 μL of MHB medium containing 2-fold serially diluted peptides with concentrations ranging from 1.56 to 50 μM. Plates were incubated at 37 °C for 24 h, and MICs were defined as the lowest concentration of peptide that prevented detectable turbidity. Cultures without peptides and uninoculated MHB were employed as positive and negative controls, respectively. The bacterial growth inhibition was evaluated by measuring the absorbance at 600 nm using a microplate autoreader (SynersyMx, Biotek).

[2] = test system: Pseudomonas aeruginosa PA01; format: cell-based; settings: 24 h
Procedure: as §1, §2

[3] = test system: Escherichia coli K12 parental type; format: cell-based; settings: K12, 24 h
Procedure: as §1, §2

trypsin = assay: in vitro; settings: for remaining at 1 h, 100 μM: trypsin in phosphate buffered saline; for peptide remaining intact after trypsin incubation: trypsin 10 μg/mL, peptide 100 μM in PBS, 1 h, RP-HPLC C18 peak area relative to t0
Text: In order to overcome the proteolytic instability of peptide based drugs, the resistance of peptides to proteases is an essential prerequisite[33] because the peptides can be digested by the microbial or host protease and lose activity. Here, we tested the effect of the incorporation of an amide bond isostere on the resistance to trypsin, a serine protease known to cleave peptide bonds mainly at the C-terminal side of the amino acids lysine or arginine.
Figure 5 Resistance of peptides to trypsin digestion.
Proteolysis was measured by RP-HPLC using the following parameters, as reported.[52] Trypsin with a final concentration of 10 μg/mL was added to a solution of the peptides in phosphate buffered saline (100 μM), and the reaction was monitored over time by using reversed-phase HPLC (C18 reverse phase, Bio-Rad analytical column, 250 × 4 mm, 300 Å pore size, 7 μm particle size). The column was eluted in 40 min using a linear gradient of 10–90% acetonitrile in water containing 0.1% trifluoroacetic acid (v/v) at a flow rate of 0.6 mL/min.

in vitro = settings: for percentage intact peptide: 20% (v/v) human plasma, 37 °C, RP-HPLC C18, 215 nm peak area; for remaining at 0.25 h, 200 μM / remaining at 0.5 h, 200 μM / remaining at 1 h, 200 μM / remaining at 2 h, 200 μM / remaining at 4 h, 200 μM: human, blood plasma (20% v/v), pH 7.4
Procedure: The stability of the peptides was assessed by incubating them in blood plasma (20% v/v) rich in proteases thrombin and plasmin for different time periods at 37 °C.
The stability of peptides in human blood plasma was measured using a literature procedure.[13],[53] Plasma was separated from red blood cells over centrifugation, frozen, and stored at −80 °C until use. Briefly, peptides were prepared as a 1 mM solution in phosphate buffered saline (pH 7.4). 20 μL of the peptide solution was diluted in 80 μL of blood plasma (20% v/v). The solution was incubated at 37 °C for different time points, and 100 μL of a mixture containing 80% acetonitrile/10% methanol/10% water was added to stop further degradation of the peptides. A cloudy solution was produced upon the addition of the stopping solution, and the sample was cooled to 4 °C for 1 h and then centrifuged at 10 000 rpm for 10 min to remove the plasma proteins as precipitate. The supernatant (50 μL) was injected onto a reversed-phase HPLC (C18 reverse phase, Bio-Rad analytical column, 250 × 4 mm, 300 Å pore size, 7 μm particle size). The column was eluted in 40 min using a linear gradient of 10–90% acetonitrile in water containing 0.1% trifluoroacetic acid (v/v) at a flow rate of 0.6 mL/min, and the absorbance was detected at 215 nm. The percentage of remaining peptide was determined by the decrease in chromatographic peak area.

Staphylococcus aureus = format: cell-based; settings: 24 h
Procedure: as §1, §2

Compound | drop of cell viability [1] | MIC (Bacillus subtilis) | MIC [2] | MIC [3] | remaining at 1 h, 100 μM (trypsin) | percentage intact peptide (in vitro; 30 min) | remaining at 0.25 h, 200 μM (in vitro) | remaining at 0.5 h, 200 μM (in vitro) | remaining at 1 h, 200 μM (in vitro) | remaining at 2 h, 200 μM (in vitro) | remaining at 4 h, 200 μM (in vitro) | MIC (Staphylococcus aureus) | peptide remaining intact after trypsin incubation (trypsin) | percentage intact peptide (in vitro; 120 min)
CC(C)C[C@H](NC(=O)[C@H](CC(C)C)NC(=O)[C@@H](N)CCCCNC(=O)[C@H](CC(C)C)NC(=O)[C@H](CC(C)C)NC(=O)[C@H](CCCCN)NC(=O)[C@@H](N)CCCCNC(=O)[C@H](CC(C)C)NC(=O)[C@H](CC(C)C)NC(=O)[C@H](CCCCN)NC(=O)[C@@H](N)CCCCNC(=O)[C@H](CC(C)C)NC(=O)[C@H](CC(C)C)NC(=O)[C@H](CCCCN)NC(=O)[C@@H](N)CC(C)C)C(N)=O [Amp1EP] (I: H-LKLL[εLys]KLL / II: H-KKLL[εLys]LL-NH2; amide I:C-II:1) | 50% | 12.5 µM (≈ 22.6 µg/mL) | 3.125 to 6.25 µM | 6.25 µM (≈ 11.3 µg/mL) | 37% | ~85% | 85% | 85% | 66% | 60% | 37% | – | – | –
CC[C@H](C)[C@H](NC(=O)CN)C(=O)NCC(=O)N[C@@H](CCCCN)C(=O)N[C@@H](Cc1ccccc1)C(=O)N[C@@H](CC(C)C)C(=O)N[C@@H](CCCCN)C(=O)NCCCC[C@H](N)C(=O)N[C@@H](C)C(=O)N[C@@H](CCCCN)C(=O)N[C@@H](CCCCN)C(=O)N[C@@H](Cc1ccccc1)C(=O)NCC(=O)NCCCC[C@H](N)C(=O)N[C@@H](C)C(=O)N[C@@H](Cc1ccccc1)C(=O)N[C@H](C(=O)NCCCC[C@H](N)C(=O)N[C@H](C(=O)N[C@@H](CC(C)C)C(=O)N[C@@H](CCCCN)C(=O)N[C@@H](CCCCN)C(N)=O)[C@@H](C)CC)C(C)C [MSIEP] (H-GIGKFLK[εLys]AKKFG[εLys]AFV[εLys]ILKK-NH2) | 20% | 6.25 to 12.5 µM | 6.25 to 12.5 µM | 12.5 µM (≈ 31 µg/mL) | > 66% | – | 99% | 98% | 76% | 75% | 75% | 6.25 to 12.5 µM | – | –
GIGKFLKKAKKFGKAFVKILKK-NH2 [MSI-78] | – | 1.56 µM | – | 1.56 to 3.12 µM | – | – | 91% | 81% | 81% | 63% | 55% | 0.78 to 1.56 µM | no longer detected | –
LKLLKKLLKKLLKLL-NH2 [Amp1L] | – | 6.25 to 12.5 µM | – | 3.12 to 6.25 µM | – | ~65% | 71% | 65% | 62% | 61% | 39% | – | no longer detected | ~61%
